US4166852A, “Piperazino-pyrimidines and their use as spasmolytic agents” (priority 1974, dated 1979)
In brackets after ≈: the same amount, converted by molar mass. Counter-ions that a name gives are not always drawn. Like-named read-outs stand apart in the source and are kept apart here.

Assays:
[1] = test system: isolated duodenum of the rabbit (barium chloride); assay: spasmolytic effect on isolated duodenum, barium chloride spasm; assay type: cell-based; settings: Oryctolagus cuniculus, read-out: Spasmolytic effects EC 50 with respect to barium chloride
Source text: (§1) Ges. Physiol., 102, 123, (1904) with respect to the spasms of the isolated duodenum of rabbits caused either by acetylchlorine for the spasmolytic nemotropes or by barium chloride for the spasmolytic musculotropes.

mice = assay: analgesic activity, painful abdominal torsions test with phenylbenzoquinone; assay type: in vivo, CD 1 (Charles RIVER) mice; settings: Mus musculus, po; mice, orally; read-out: Phenylbenzoquinone test on mice AD 50
Source text: The analgesic properties of the products according to the invention have been shown with CD 1 (Charles RIVER) mice in the painful abdominal torsions test with phenylbenzoquinone according to the technique of E. Siegmund, R. Cadmus and Go.Lu--Proc. Soc. Exp. Biol. Med., 95, 729, (1957).

dogs = assay: anti-emetic activity, apomorphine vomiting test on dogs; assay type: in vivo; settings: for ED50: Canis lupus familiaris, po, read-out: Anti-emetic activity on dogs ED 50
Source text: The anti-emetic properties of the compounds according to the invention have been shown by oral administration of apomorphine to dogs in the vomiting test according to G. Chen and C. J. Ensor, Pharmacol. exp. Therap., 98, 24 (1950).

[2] = acute toxicity, LD 50, CD 1 mice; assay type: in vivo; settings: mouse, in vivo
Source text: The acute toxicities of the compounds according to the invention have been determined on CD 1 (Charles RIVER) mice by intravenous and oral methods. The LD 50 of each compound has been calculated by the cumulative method of J. J. Reed and H. Muench, (Amer. J. Hyg., 1938, 27, 493).

[3] = test system: isolated duodenum of the rabbit (acetylcholine); assay: spasmolytic effect on isolated duodenum, acetylcholine spasm; assay type: cell-based; settings: Oryctolagus cuniculus, read-out: Spasmolytic effects EC 50 with respect to acetylcholine
Source text: as §1

head twitch = assay: anti-serotonine activity, head twitch; assay type: in vivo, CD 1 (Charles RIVER) mice; settings: Mus musculus, po; mice, orally; read-out: "Head-twitch" AD 50
Source text: (§2) The anti-serotonine activities of the compounds according to the invention have been shown by oral administration to the CD (Charles RIVER) rats using the technique of the serotonine plantar oedema (W. Theobald and R. Domenjoz--Arzneimittel Forsch, 8, 18, 1958 and with the CD 1 (Charles RIVER) mice using the technique known as "head twitch" according to S. J. Corne, R. W. Pickering and B. T. Warner, Brit. J. Pharmacol., 20, 106, (1963). The anti-serotonine activity has also been determined on the one hand on the tricoloured guinea-pig, given intravenously, according to a method derived from H. Konzet and R. Rossler, Arch. exp. Pathol, Pharmakol., 195, 71, (1940) and on the other hand in vitro with respect to the serotonine spasm of the isolated uterus of the rat according to the technique of A. Fanchamps, W. Doepfener, H. Weidman and A. Cerletti, Schw. Med. Worsch, 90, 1940, (1960).

serotonine bronchospasms = assay: anti-serotonine activity, serotonine bronchospasms; assay type: in vivo, tricoloured guinea-pig; settings: Cavia porcellus, iv; guinea pig, intravenously; read-out: Serotonine bronchospasms ED 50
Source text: as §2

mouse [4] = assay: traction test, mouse; assay type: in vivo, CD1 (Charles RIVER) mice; settings: po, orally, read-out: Traction AD 50
Source text: (§3) The neuroloptic effects of the compounds according to the invention have been shown with respect to the CD rat (Charles RIVER) taken orally in the catalepsy test according to S. COURVOISIER, R. DUCROT, and L. JULOU, in Psychotropic Drugs, S. GARATTINI and V. GHETTI, Edit.--ELSEVIER Publ. Co., AMSTERDAM, LONDON, NEW YORK, PRINCETON, 1957 P. 373 and also in the traction test of CD1 (Charles RIVER) mice taken orally S. COURVOISIER, Quart. Rev. Psychiat. Neurol. 17, 25 (1956), on the one hand and also in the spontaneous motility test.

rat = assay: catalepsy test, rat; assay type: in vivo, CD rat (Charles RIVER); settings: po, orally, read-out: Catalepsy AD 50
Source text: as §3

[5] = test system: serotonine plantar oedema; assay: anti-serotonine activity, serotonine plantar oedema; assay type: in vivo, CD (Charles RIVER) rats; settings: po; rat, orally; read-out: Serotonine plantar oedema AD 50
Source text: as §2

mouse [6] = assay: spontaneous motility test (hypomotility), mouse; assay type: in vivo, mice; settings: po, 1 h, orally, 60 minutes before measuring, 50% reduction of mean motility, first 5 minutes, read-out: Hypomotility ED 50
Source text: as §3
This latter technique comprises keeping an account of the displacements of the mice by means of a floor of metal strips which enables the spontaneous activity of the animals to be recorded during the first 5 minutes subsequent to their being introduced into the measuring chamber. The products are dispensed 60 minutes before measuring is effected and 10 mice are used per dose. The results are expressed in ED 50 which represents the dose of substance capable of reducing the mean motility of the treated animals by 50% relative to that of the sample group which has only received the dispensing carrier.

solubility = assay type: physicochemical
[7] = intravenous, read-out: Acute toxicity for mice LD 50, intravenous
[8] = oral, read-out: Acute toxicity for mice LD 50, orally

SMILES | EC50 [1] [µg/mL] | ED50 (mice) [mg/kg] | ED50 (dogs; dogs, orally, apomorphine) [mg/kg] | LD50 [2, 7] [mg/kg] | LD50 [2, 8] [mg/kg] | EC50 [3] [µg/mL] | ED50 (head twitch) [mg/kg] | ED50 (serotonine bronchospasms) [mg/kg] | ED50 (mouse [4]) [mg/kg] | ED50 (dogs) [mg/kg] | ED50 (rat) [mg/kg] | anti-vomiting ranking (dogs; comparison within the series, dogs) | ED50 [5] [mg/kg] | ED50 (mouse [6]) [mg/kg] | solubility in dilute hydrochloric acid (solubility) | solubility in ethanol (alcohol) (solubility) | solubility in water (solubility)
CSc1c(Cl)nc(NC(C)C)nc1N1CCN(C)CC1 [Example 2, 2-Isopropylamino-4-N-methyl-piperazino-6-chloro-5-methylthio-pyrimidine] | 1.2 (≈ 3.8 µM) | 65 | 0.12 | 79 | ~525 | 5 (≈ 15.8 µM) | – | – | – | – | – | – | – | – | – | – | –
CSc1c(Cl)nc(NC(C)(C)C)nc1N1CCN(C)CC1 [Example 3, 2-t-butylamino-4-N-methylpiperazino-5-methylthio-6-chloro-pyrimidine] | 0.5 (≈ 1.52 µM) | – | – | 67 | ~600 | 2.5 (≈ 7.58 µM) | 300 | – | – | – | – | – | – | – | – | – | –
CSc1c(Cl)nc(N)nc1N1CCN(C)CC1 [Example 6, 2-Amino-4-N-methylpiperazino-6-chloro-5-methylthio-pyrimidine hydrochloride] | – | – | – | 33 | ~225 | – | 30 | 1.2 | > 100 | 0.11 | 100 | – | – | – | – | – | –
CNc1nc(Cl)c(SC)c(N2CCN(c3ccccc3)CC2)n1 [Example 7, 4-N-phenylpiperazino-2-methylamino-6-chloro-5-methylthio-pyrimidine] | – | – | – | – | – | – | 400 | – | – | – | – | – | – | – | – | – | –
CNc1nc(Cl)c(SC)c(N2CCN(CCO)CC2)n1 [Example 8, 2-Methylamino-4-N-(β-hydroxyethyl)-piperazino-6-chloro-5-methylthio-pyrimidine] | 1.3 (≈ 4.09 µM) | – | 0.25 | 124 | ~525 | 5 (≈ 15.7 µM) | – | – | – | – | – | – | – | – | – | – | –
CSc1c(Cl)nc(N2CCN(C)CC2)nc1N1CCN(C)CC1 [Example 9, Bis-2,4-(N-methylpiperazino)-6-chloro-5-methylthio-pyrimidine hydrochloride] | 3.6 | 150 | – | 83 | ~675 | > 10 | 300 | – | – | – | – | – | – | – | – | – | –
CNc1nc(Cl)c(SC)c(N2CCNCC2)n1 [Example 10, 2-Methylamino-4-piperazino-6-chloro-5-methylthio-pyrimidine hydrochloride] | – | 65 | – | 57 | ~225 | – | – | – | – | 0.07 | 75 | the most strong anti-vomiting agents | – | – | – | – | –
CSc1c(Cl)nc(N2CCCCC2)nc1N1CCN(C)CC1 [Example 11, 2-Piperidino-4-methylpiperazino-5-methylthio-6-chloro-pyrimidine hydrochloride] | 2.2 | – | – | 115 | ~525 | 2.5 | – | – | – | – | – | – | – | – | – | – | –
CSc1c(Cl)nc(N(C)c2ccccc2)nc1N1CCN(C)CC1 [Example 12, 2-(N-methyl-N-phenyl)amino-4-N-methylpiperazino-5-methylthio-6-chloro-pyrimidine hydrochloride] | 2.2 | 100 | – | 113 | ~525 | 3 | – | – | – | – | – | – | – | – | – | – | –
CSc1c(Cl)nc(N(C)C(=O)c2ccccc2)nc1N1CCN(C)CC1 [Example 13, 2-(N-methyl-N-benzoyl)amino-4-N-methyl-piperazino-6-chloro-5-methylthio-pyrimidine hydrochloride] | 2.6 | – | 1.9 | 91 | ~600 | 4 | 300 | – | – | – | – | – | > 300 | – | – | – | –
CCN(CC)c1nc(Cl)c(SC)c(N2CCN(C)CC2)n1 [Example 15, 2-N-diethylamino-4-N-methylpiperazino-5-methylthio-6-chloro-pyrimidine dihydrobromide] | 4 | 300 | – | 123 | ~600 | 5 | – | – | – | – | – | – | – | – | – | – | –
CNc1nc(OC)c(SC)c(N2CCN(C)CC2)n1 [Example 17, 2-Methylamino-4-N-methylpiperazino-5-methyl-thio-6-methoxy-pyrimidine hydrochloride] | – | – | – | 58 | ~400 | – | – | 3 | – | 1.4 | – | – | 100 | – | – | – | –
CCCOc1nc(NC)nc(N2CCN(C)CC2)c1SC [Example 18, 2-Methylamino-4-N-methylpiperazino-5-methylthio-6-propoxy-pyrimidine hydrochloride] | 2.1 | – | 3.9 | 63 | ~525 | > 5 | – | – | – | – | – | – | – | – | – | – | –
C=CCOc1nc(NC)nc(N2CCN(C)CC2)c1SC [Example 19, 2-methylamino-4-N-methylpiperazino-5-methylthio-6-allyloxy-pyrimidine hydrochloride] | 3.1 | 100 | 1.5 | 56 | ~400 | > 5 | – | – | – | – | – | – | > 100 | – | – | – | –
C=CCNc1nc(Cl)c(SC)c(N2CCN(C)CC2)n1 [Example 21, 2-Allylamino-4-N-methylpiperazino-6-chloro-5-methylthio-pyrimidine] | 1 (≈ 3.19 µM) | > 100 | 0.8 | 46 | ~200 | 1.6 (≈ 5.1 µM) | 20 | 0.01 | – | – | 300 | – | > 100 | 28 | soluble | soluble | water-insoluble
CSc1c(Cl)nc(NCCO)nc1N1CCN(C)CC1 [Example 22, 2-N-(β-hydroxyethyl)amino-4-N-methylpiperazino-6-chloro-5-methylthiopyrimidine] | > 10 | > 100 | 0.85 | 89 | ~600 | > 10 | > 100 | 0.16 | – | – | – | – | – | 100 | soluble | soluble | insoluble
CSc1c(Cl)nc(N2CCOCC2)nc1N1CCN(C)CC1 [Example 28, 2-Morpholino-4-N-methylpiperazino-6-chloro-5-methylthiopyrimidine] | 1.7 (≈ 4.94 µM) | > 100 | > 5 | 110 | ~400 | 4.5 (≈ 13.1 µM) | 70 | > 0.1 | – | – | – | – | > 100 | 100 | soluble | soluble | insoluble
COc1ccc(Nc2nc(Cl)c(SC)c(N3CCN(C)CC3)n2)cc1 [Example 32, 4'-methoxy-2-phenylamino-4-N-methylpiperazino-6-chloro-5-methylthiopyrimidine] | – | > 35 | – | 83 | ~495 | 5.5 (≈ 14.5 µM) | 27 | 0.9 | – | – | – | – | – | 60 | soluble | – | insoluble
